The nature of series [1]: Storage stability of Elobixibat alone or mixed 1:1 with an additive: total related substance(s) by HPLC. In kind it is physicochemical. Particulars: stored in an open state for 2 weeks, 60° C. and 75% relative humidity. The protocol:
(§1) 1,1-dioxo-3,3-dibutyl-5-phenyl-7-methylthio-8-(N—{(R)-1′-phenyl-1′-[N′-(carboxymethyl)carbamoyl]methyl}carbamoylmethoxy)-2,3,4,5-tetrahydro-1,5-benzothiazepine (Elobixibat) and an additive shown in Table 1 were mixed in a weight ratio of 1:1. Thereby, the mixtures according to Reference Examples 2 to 10 were obtained. The mixture of each of Reference Examples 2 to 10, and only Elobixibat as Reference Example 1 was independently stored in an open state for 2 weeks under the conditions of 60° C. and 75% relative humidity. The material of Reference Example 1 and the mixtures according to Reference Examples 2 to 10 after storage were independently dispersed and dissolved in acetonitrile aqueous solution. The total amount of related substance(s) in the aforementioned aqueous solution was calculated as the sum of the areas in percentage for Elobixibat by the measurement in accordance with an HPLC method. In addition, the presence or absence of coloration of the mixtures of Reference Examples 1 to 7 after storage was visually observed. “%” shown in Table 1 indicates percent by weight.

Series [2] in a line: Visual observation of coloration of Elobixibat and Elobixibat/additive mixtures after storage. In kind it is physicochemical. Particulars: 60° C. and 75% relative humidity, visually observed. The protocol:
as §1

Each structure is given as a SMILES string.

Turning to `CCCCC1(CCCC)CN(c2ccccc2)c2cc(SC)c(OCC(=O)N[C@@H](C(=O)NCC(=O)O)c3ccccc3)cc2S(=O)(=O)C1` [Reference Example 1, 1,1-dioxo-3,3-dibutyl-5-phenyl-7-methylthio-8-(N—{(R)-1′-phenyl-1′-[N′-(carboxymethyl)carbamoyl]methyl}carbamoylmethoxy)-2,3,4,5-tetrahydro-1,5-benzothiazepine], in series [1] (summary of Table 1), the “Increase of the amount of related substance(s) after storage (in words)” value is “a great increase of the related substance(s) was not observed”. In addition, the “Total amount of related substance(s) after storage” value in series [1] (weight ratio 1:1 with additive, sum of HPLC areas in percentage for Elobixibat) was found to be 0.6%. Further, in series [2] (colour before and after 2 weeks open storage), the “Coloration: Before storage → after storage” value is recorded as “White → white”. Besides, in series [2] (stored in an open state for 2 weeks), the Coloration after storage entry is listed as “Not observed”.

For the origin of these results see patent US20170143738A1, “SOLID FORMULATION AND METHOD FOR STABILIZING THE SAME” (EA Pharma Co., Ltd., priority 2014, published 2017).
